From ChEMBL document CHEMBL6182902, “Design, synthesis, and discovery of cinnamoyl amide derivatives as potent NagZ inhibitors with antibacterial activity” (Eur J Med Chem, 2025) come the findings set out here.

The subject of test [1] is Escherichia coli. As to the kind of experiment: Inhibition of recombinant N-terminal His-tagged Escherichia coli BL21 NagZ extracted from Escherichia coli BL21 using pNP-GlcNAc as substrate at 100 uM by absorbance based assay relative to control.
Test [2] can be described thus: Inhibition of recombinant N-terminal His-tagged Escherichia coli BL21 NagZ extracted from Escherichia coli BL21 using different concentrations of substrate pNP-GlcNAc by 4-nitrophenolate ion release based spectrophotometric analysis.
The nature of test [3]: Inhibition of recombinant N-terminal His-tagged Escherichia coli BL21 NagZ extracted from Escherichia coli BL21 using pNP-GlcNAc as substrate by absorbance based assay.
In test [4] the test system is Pseudomonas aeruginosa. The test can be described thus: Antibacterial activity against Pseudomonas aeruginosa ATCC 27853 infected in female KM mouse assessed as epithelial tissue proliferation in skin at 40 mg/kg, iv measured after 3 days. The note with it: time 3.0 day. In kind it is functional, organism-based.
Test [5] has as its system Pseudomonas aeruginosa. The test can be described thus: Antibacterial activity against Pseudomonas aeruginosa ATCC 27853 infected in female KM mouse assessed as wound healing rate in skin at 40 mg/kg, iv measured after 3 days (reference value: 36.2 %). It is filed as functional. The note with it: time 3 day.
For test [6], the system named is Pseudomonas aeruginosa. As to the kind of experiment: Antibacterial activity against Pseudomonas aeruginosa ATCC 27853 infected in female KM mouse assessed as increase in wound contraction in skin at 40 mg/kg, iv measured after 3 days. It is filed as functional, organism-based. The note with it: time 3.0 day.
Test [7] deals with Pseudomonas aeruginosa. The test can be described thus: Antibacterial activity against Pseudomonas aeruginosa ATCC 27853 infected in female KM mouse assessed as epithelial tissue proliferation in skin at 20 mg/kg, iv measured after 3 days. It is filed as functional, organism-based. To be noted: time 3.0 day.
In test [8] the test system is Pseudomonas aeruginosa. The test can be described thus: Antibacterial activity against Pseudomonas aeruginosa ATCC 27853 infected in female KM mouse assessed as wound healing rate in skin at 20 mg/kg, iv measured after 3 days (reference value: 36.2 %). In kind it is functional. The note with it: time 3 day.

One may read the inhibition as the share of the control response that was lost under treatment. One may read the Ki as a dissociation constant, usually derived from enzyme kinetics or from competition with a known ligand. One may read the IC50 as the concentration at which inhibition is half-maximal.

Each structure is given as a SMILES string. Active and inactive are the calls of the source. No cut-off for these calls is given here.

On to `O=C(/C=C/c1ccc(F)cc1)NC(Cc1ccc(Br)cc1)C(=O)O` (racemic), for which the inhibition in test [1] was found to be 17.5%. Still for that read-out and setting: with `O=C(/C=C/c1ccc(F)cc1)N[C@@H](Cc1ccc(I)cc1)C(=O)O` the figure was 34.3%; with `O=C(/C=C/c1ccc(O)cc1)N[C@@H](Cc1ccc(I)cc1)C(=O)O`, 46.2%. For `O=C(/C=C/c1c[nH]c2ccccc12)N[C@@H](Cc1ccc(I)cc1)C(=O)O`, the Ki in test [2] was determined as 15.5 µM. The inhibition in test [1] stood at 78.8%. In test [3], the IC50 was 39.6 µM.

For `O=C(/C=C/c1ccc(I)cc1)N[C@H](Cc1ccc(Br)cc1)C(=O)O`, the inhibition in test [1] worked out at 76.1%. Same read-out and setting: with `O=C(/C=C/c1ccc(O)c(O)c1)N[C@@H](Cc1ccc(I)cc1)C(=O)O` the figure was 66.5%. As for `O=C(/C=C/c1c(Cl)cccc1Cl)N[C@@H](Cc1ccc(I)cc1)C(=O)O`, in test [2], the Ki came out at 22.2 µM. Moreover, the inhibition in test [1] came out at 76.9%. Further, the concentration for half-maximal inhibition (IC50) in test [3] turned out to be 84.9 µM. Turning to `O=C(/C=C/c1ccco1)N[C@@H](Cc1ccc(I)cc1)C(=O)O`, the inhibition in test [1] was 35.8%. On to `CC1=C(O)C(=O)C=C2C1=CC=C1[C@@]2(C)CC[C@@]2(C)[C@@H]3C[C@](C)(C(=O)O)CC[C@]3(C)CC[C@]12C` [CELASTROL], for which the inhibition in test [1] turned out to be 50%. Besides, in test [3], the IC50 worked out at 62.8 µM. For the molecule `CC(=O)N[C@H]1/C(=N/OC(=O)Nc2ccccc2)O[C@H](CO)[C@@H](O)[C@@H]1O` [PUGNAC], the Ki in test [3] was 0.075 µM. Regarding `O=C(/C=C/c1ccc(Cl)c(Cl)c1)N[C@@H](Cc1ccccc1)C(=O)O`, the inhibition in test [1] was found to be 50.4%. In the case of `O=C(CCc1ccccc1)N[C@@H](Cc1ccc(I)cc1)C(=O)O`, the inhibition in test [1] amounted to 21.5%. The same measure, in the same setting: in the case of `O=C(/C=C/c1ccc(Cl)c(Cl)c1)N[C@@H](Cc1c[nH]c2ccccc12)C(=O)O` it was 68.2%; in that of `O=C(/C=C/c1ccccc1)N[C@@H](Cc1ccc(I)cc1)C(=O)O`, 20.2%. For `O=C(/C=C/c1ccc(O)c(O)c1)O[C@H](Cc1ccc(O)c(O)c1)C(=O)O` [ROSMARINIC ACID], the inhibition in test [1] stood at 64.3%. For the same molecule, the IC50 in test [3] amounted to 56.1 µM. Turning to `COC(=O)C(Cc1ccc(Br)cc1)NC(=O)/C=C/c1ccc(Cl)cc1` (racemic), the inhibition entry in test [1] was “inactive”. Same read-out and setting: with `O=C(/C=C/c1ccc(Br)cc1)N[C@@H](Cc1ccccc1)C(=O)O` the figure was 16.9%; with `O=C(/C=C/c1ccc(F)c(Cl)c1)N[C@H](Cc1ccc(Br)cc1)C(=O)O`, 71.6%. For the molecule `O=C(O[C@@H]1Cc2c(O)cc(O)cc2O[C@@H]1c1cc(O)c(O)c(O)c1)c1cc(O)c(O)c(O)c1` [EPIGALOCATECHIN GALLATE], the inhibition in test [1] came out at 51.4%. Besides, the IC50 in test [3] was 61.2 µM. Consider `O=C(/C=C/c1cccc(Cl)c1)N[C@@H](Cc1ccccc1)C(=O)O`, for which the inhibition in test [1] is 19.9%. On the same count and under the same terms, in the case of `O=C(/C=C/c1ccc(F)c(F)c1)N[C@@H](Cc1ccc(I)cc1)C(=O)O` it was 30.5%; in that of `O=C(/C=C/c1ccc(Cl)c(Cl)c1)NC(Cc1ccc(Cl)cc1)C(=O)O` (racemic), 77.1%. On the same count and under the same terms, in the case of `O=C(/C=C/c1ccc([N+](=O)[O-])cc1)N[C@@H](Cc1ccc(I)cc1)C(=O)O` it was 37.2%; in that of `COC(=O)[C@H](Cc1ccccc1)NC(=O)/C=C/c1cccc(Cl)c1`, 11.6%; in that of `COC(=O)[C@H](Cc1ccccc1)NC(=O)/C=C/c1ccc(Br)cc1`, “inactive”. On the same count and under the same terms, with `COC(=O)[C@H](Cc1ccccc1)NC(=O)/C=C/c1ccc(Cl)c(Cl)c1` the entry was “inactive”; with `O=C(C#Cc1ccccc1)N[C@@H](Cc1ccc(I)cc1)C(=O)O`, 29.7%.

For `CC(C)(O/N=C(\C(=O)N[C@@H]1C(=O)N2C(C(=O)[O-])=C(C[n+]3ccccc3)CS[C@H]12)c1csc(N)n1)C(=O)O` [CEFTAZIDIME], the outcome in test [4] was Active. The Activity in test [5] is on record as 62.2%; in test [6], “Active; Activity Higher Than Imipenem”. With `O=C(/C=C\c1ccccc1)N[C@@H](Cc1ccc(I)cc1)C(=O)O`, in test [1], the inhibition is 12%. On the same count and under the same terms, in the case of `O=C(/C=C/c1ccc(F)c(Cl)c1)N[C@@H](Cc1ccc(I)cc1)C(=O)O` it was 72%; in that of `COC(=O)[C@H](Cc1ccc(I)cc1)NC(=O)/C=C/c1ccc(F)cc1`, 14%. Take `O=C(O[C@@H]1Cc2c(O)cc(O)cc2O[C@@H]1c1ccc(O)c(O)c1)c1cc(O)c(O)c(O)c1` [EPICATECHIN GALLATE]: in test [1], the inhibition was determined as 45.1%. The IC50 in test [3] came to 70.4 µM. Consider `O=C(/C=C/c1ccc2ccccc2c1)N[C@@H](Cc1ccc(I)cc1)C(=O)O`, for which the Ki in test [2] came to 7.4 µM. Besides, in test [1], the inhibition stood at 87%. In test [3], the IC50 amounted to 10.8 µM. In the case of `O=C(/C=C/c1ccc([N+](=O)[O-])o1)N[C@@H](Cc1ccc(I)cc1)C(=O)O`, in test [1], the inhibition came to 48.4%.

`O=C(/C=C/c1cccc([N+](=O)[O-])c1)N[C@@H](Cc1ccc(I)cc1)C(=O)O`: in test [1], the inhibition stood at 42.1%.

For the molecule `O=C(CCc1ccc(Cl)c(Cl)c1)N[C@@H](Cc1ccc(I)cc1)C(=O)O`, the inhibition in test [1] worked out at 73.5%. On the same count and under the same terms, with `O=C(/C=C/c1ccc(Br)cc1)N[C@H](Cc1ccc(Br)cc1)C(=O)O` the figure was 46.5%. The same measure, in the same setting: in the case of `O=C(/C=C/c1ccccc1)N[C@H](Cc1ccc(Br)cc1)C(=O)O` it was 15.9%. On to `O=C(/C=C/c1ccc([N+](=O)[O-])o1)N[C@H](Cc1ccc(Br)cc1)C(=O)O`, for which the inhibition in test [1] stood at 38.2%.

As to `O=C(/C=C/c1ccc(Cl)c(Cl)c1)N[C@H](Cc1ccc(Br)cc1)C(=O)O`, the Ki in test [2] is 3.5 µM. Also, in test [1], the inhibition amounted to 87%. Besides, the IC50 in test [3] was found to be 6.3 µM. In the case of `O=C(O[C@@H]1Cc2c(O)cc(O)cc2O[C@H]1c1cc(O)c(O)c(O)c1)c1cc(O)c(O)c(O)c1` [GALLOCATECHIN GALLATE], the inhibition in test [1] came out at 54.9%. Besides, the IC50 in test [3] is 64.3 µM. For `CC1(C)[C@@H](O)CC[C@]2(C)[C@H]3C(=O)C=C4[C@H]5C[C@@](C)(C(=O)O)CC[C@]5(C)CC[C@@]4(C)[C@]3(C)CC[C@@H]12` [18alpha-GLYCYRRHETINIC ACID] the same measures were 69.6% and 75.5 µM. Turning to `COC(=O)C(Cc1ccc(Br)cc1)NC(=O)/C=C/c1ccc(Cl)c(Cl)c1` (racemic), in test [1], the inhibition entry is “inactive”. The same measure, in the same setting: in the case of `O=C(/C=C/c1ccc(Cl)cc1)N[C@H](Cc1ccc(Br)cc1)C(=O)O` it was 49.8%.

`O=C(O)[C@H](Cc1ccc(I)cc1)NC(=O)[C@H]1C[C@@H]1c1ccccc1`: the inhibition in test [1] came out at 29.1%.

Take `COC(=O)C(Cc1ccc(Br)cc1)NC(=O)/C=C/c1ccc(F)cc1` (racemic): the inhibition in test [1] came to 7.2%. Turning to `CC1(C)CC[C@]2(C(=O)O)CC[C@]3(C)C(=CC[C@@H]4[C@@]5(C)CC[C@H](O)[C@@](C)(CO)[C@@H]5CC[C@]43C)[C@@H]2C1` [HEDERAGENIN], the inhibition in test [1] worked out at 29.4%. In addition, the IC50 in test [3] stood at 101 µM. With `O=C(/C=C/c1cc(F)c(F)c(F)c1)N[C@@H](Cc1ccc(I)cc1)C(=O)O`, in test [1], the inhibition was 60.3%.

As for `C=CCc1ccc(O)c(-c2cc(CC=C)ccc2O)c1` [MAGNOLOL], the inhibition in test [1] came to 58.9%. In test [3], the IC50 amounted to 88.3 µM. Take `O=C(/C=C/c1ccc(Cl)c(Cl)c1)NC(Cc1ccc(Br)cc1)C(=O)O` (racemic): the inhibition constant (Ki) in test [2] was 22.4 µM. Besides, the inhibition in test [1] was 86.1%. Further, the IC50 in test [3] is 36.5 µM. As to `COC(=O)[C@H](Cc1ccc(I)cc1)NC(=O)/C=C/c1ccc(Cl)c(Cl)c1`, in test [1], the inhibition entry is “inactive”. For `O=C(/C=C/c1ccc(Br)cc1)N[C@@H](Cc1ccc(I)cc1)C(=O)O`, the Ki in test [2] is 24.2 µM. In test [1], the inhibition turned out to be 81.2%. Also, the IC50 in test [3] stood at 119 µM. On the same counts, the results for `O=C(/C=C/c1ccc(I)cc1)N[C@@H](Cc1ccc(I)cc1)C(=O)O` are 14.3 µM, 85.5% and 110 µM. For the molecule `O=C(/C=C/c1ccc(Cl)cc1)N[C@@H](Cc1ccc(I)cc1)C(=O)O`, in test [2], the Ki is 56.1 µM. Further, the inhibition in test [1] stood at 75.7%. Further, in test [3], the half-inhibitory concentration (IC50) worked out at 182 µM. For `O=C(N[C@@H](Cc1ccc(I)cc1)C(=O)O)/C(=C/c1ccccc1)c1ccccc1` the same measures were 15.5 µM, 86.8% and 39.6 µM. In the case of `O=C(/C=C/c1ccc(Cl)cc1)NC(Cc1ccc(Br)cc1)C(=O)O` (racemic), the inhibition in test [1] was 37.2%.

For the molecule `C[C@@H](O)[C@H]1C(=O)N2C(C(=O)O)=C(SCCNC=N)C[C@H]12` [IMIPENEM ANHYDROUS], the outcome in test [7] was Active. The Activity in test [8] amounted to 54.4%.
